Data reported in patent publication US20180318199A1, “Pharmaceutical Composition Having Anti-Aging Properties against High-Glucose” (TAIWAN LEADER BIOTECH CORP., priority 2017, published 2018).

Assays:
Format in all cases: cell-based, human
HNDFs (CCD966SK) = assay: MTT cytotoxicity of antcins against HNDFs; conditions: for cytotoxicity to HNDFs (in words): MTT, 72 h, up to 20 μM; for IC50: MTT assay, 72 h, 1, 5, 10 and 20 μM tested, read-out: 50% inhibitory concentration (IC50) against HNDFs
Protocol: Please refer to FIG. 2A˜FIG. 2D, which are views showing HG-induced senescence affected by antcins in HNDFs. As shown in the figures, prior to an investigation, cytotoxicity of antcins against HNDFs is determined. In FIG. 2A, type of antcins are subjected to screen for potential anti-aging agents for skin aging. Names and chemical structures of the antcins are shown in the left and center column, respectively. The cytotoxic effects of antcins against HNDFs are investigated. Briefly, HNDFs are incubated with increasing concentrations (1, 5, 10 and 20 μM) of antcins including ANA, ANB, ANC, ANH, ANK and ANM for 72 h and the cell viability is determined by MTT assay. The 50% inhibitory concentrations (IC50) of each compound against HNDFs are shown in right column.
Cell viability is assessed by MTT colorimetric assay. Briefly, HNDFs (2×10^4cells/well) or HUVECs (5×10^4 cells/well) are seeded in a 24-well culture plate. After treatment with HG (15 and 30 mM) in the presence or absence of samples for 24-72 h, culture media is withdrawn and incubated with MTT (1 mg/mL) in fresh medium for 2 h. The MTT formazan crystals are dissolved in 400 μL of DMSO and the samples are measured at 570 nm […] using an ELISA microplate reader (Bio-Tek Instruments, Winooski, Vt.). The percentage of cell viability (%) is calculated as (A570 of treated cells/A570 of untreated cells)×100.

HNDFs [1] = assay: Trypan blue exclusion cell proliferation assay in HNDFs; conditions: antcins 10 μM + HG 30 mM, 72 h, trypan blue exclusion
Protocol: To further clarify the effect of antcins, HG-induced reduction in cell proliferation is determined. In FIG. 2D, to determine the effect of antcins on cell proliferation efficacy, 5×10^4 cells/well of HNDFs are incubated with antcins in 6-well plates in the presence of HG (30 mM) for 72 h. Number of viable cells is quantified by the tryphan blue exclusion method. Results are expressed as mean±S.E.M of three indipendent expriments. Statistical significance is set at ^ϕP<0.05 as compared to NG vs. HG and *P<0.05 as compared to HG vs. samples. […] Therefore, the molecular mechanism underlying the protective effect of ANM is explored next.
Furthermore, in FIG. 3C, to determine the effect of ANM or NAC on cell proliferation, 5×10^4 cells/well of HNDFs are incubated in a 6-well plate with ANM (10 μM) or NAC (100 μM) in the presence of HG (30 mM) for 72 h. Number of viable cells is quantified by the tryphan blue exclusion method. Results expressed as mean±S.E.M of three independent experiments. Statistical significance is set at ^ϕP<0.05 as compared to NG vs. HG and *P<0.05 as compared to HG vs. samples.
Cell proliferation is evaluated using trypan blue exclusion assay as described previously with minor modification. Cells are plated into 6-well plates at a density of 5×10^4 cells/well. After incubation overnight, cells are treated with test samples in the presence or absence of HG for 24-72 h. Cells exposed to 0.2% Trypan blue are then counted in a hemocytometer, and cells stained with Trypan blue are excluded. Percentage of viable cells is calculated based on the ratio of viable cells to total cell population in each well. The proliferation rate is calculated based on the number of viable cells in HG or sample-treated groups versus the NG-treated group.

HNDFs [2] = assay: SA-β-gal senescence assay in HG-induced HNDFs; conditions: for SA-β-gal positive cells: 10 μM compound + HG 30 mM, 72 h, HG alone 9.59-fold (FIG. 2B)
Protocol: Next, the protective effects of antcins on HG-induced HNDF senescence are examined. In FIG. 2B, cells were incubated with ANA (10 μM), ANH (10 μM) and ANM (10 μM) in the presence of HG (30 mM) for 72 h. Cellular senescence is determined by SA-β-gal activity. […] After cells are co-incubated with HG and antcins (ANA, ANH and ANM) for 72 h, senescence is measured by SA-β-gal assay.
Therefore, in order to examine whether the ROS inhibitory effect may be extended to suppress HG-induced senescence, HG-induced senescenece eliminated by ANM is examined. In FIG. 4B, HNDFs are incubated with ANM (10 μM) or NAC (100 μM) in the presence or absence of HG (30 mM) for 72 h. Cellular senescence is determined by SA-β-gal assay. […] As is shown, cells are co-incubated with HG and ANM or NAC for 72 h.
Senescence-associated β-galactosidase (SA-β-gal) activity is determined in formaldehyde-fixed histochemical staining kit according to the manufacturer's instructions (Cell Signaling Technology, Danvers, Calif.). Briefly, cells are grown in 6-well plates at a density of 5×10^4 cells/well, and incubated with HG or test samples for 48 h (HUVECs) or 72 h (HNDFs). After incubation, cells are stained with SA-β-gal staining solution at pH 6.0 overnight and then the development of blue staining is observed and photographed under a bright-field microscope (Motic Electric Group, Xiamen, P.R. China).

[3] = system: p16^INK4A, p21^CIP1 and SMP30; assay: Western blot of senescence-associated marker proteins in HNDFs; conditions: 10 μM + HG 30 mM, 72 h, western blot
Protocol: In addition, in FIG. 2C, HNDFs are incubated with ANA (10 μM), ANH (10 μM) and ANM (10 μM) in the presence of HG (30 mM) for 72 h. Senescence-associated marker proteins such as p16^INK4A, p21^CIP1 and SMP30 are determined by western blot analysis.
In order to assess the cellular and molecular basis of the ANM-mediated inhibition of senescence, the expression levels of senescence-associated marker proteins including, p16^INK4A and p21^CIP1 are examined. In FIG. 4D, to determine the effect of ANM on senescence-associated protein expression, HNDFs are incubated with ANM (10 μM) or NAC (100 μM) in the presence or absence of HG (30 mM) for 72 h. Immunoblotting analysis is used to determine the protein levels with corresponding specific antibodies.
(§1) Cells are lysed by either RIPA lysis buffer or nuclear and cytoplasmic extraction reagents (Thermo Fisher Scientific). Protein concentrations are determined by Bio-Rad protein assay reagent (Bio-Rad Laboratories, Hercules, Calif.). Equal amounts of protein samples (60 μg) are separated by 7-12% SDS-PAGE and the separated proteins are transferred onto polyvinylidene […] (PVDC) membrane overnight. The transferred protein membranes are blocked with 5% non-fat dried milk for 30 min, followed by incubation with specific primary antibodies overnight, and either horseradish peroxidase-conjugated goat anti-rabbit or anti-mouse antibodies for 2 h. The blots are detected using VL Chemi-Smart 3000 (Viogene Biotek, Sunnyvale, Calif.) with the enhanced chemiluminescence (ECL) western blotting reagent (Millipore, Billerica, Mass.).

p53 and FoxO1 = assay: Western blot of p53 and FoxO1 acetylation/phosphorylation in HNDFs; conditions: pharmacological inhibitor in the presence of HG (FIG. 4G)
Protocol: It is well known that p16^INK4A and p21^CIP1 are regulated by transcription factors p53 and FoxO1 followed by acetylation. […] In addition, p53 phosphorylation at Ser15 by their upstream kinases promotes transcriptional activation in response to DNA damage.
To further examine the phenomenon that HG-induced p53 activation is relayed by the p38 MAPK or JNK/SAPK cascade, cells are incubated with corresponding pharmacological inhibitors, SB203580, SP600125, PD98059 and LY294002 for p38MAPK, JNK/SAPK, ERK1/2 and P13K/AKT, respectively in the presence of HG.
The protein expression levels of SIRT-1, SIRT-6, p21^CIP1, SMP30, p53, FoxO and acetylation of p53 and FoxO1 are determined by western blot analysis.
as §1

Nrf2 = assay: ARE luciferase reporter assay (Nrf2 transcriptional activity) in HNDFs; conditions: inhibitor 30 μM 2 h, then ANM 10 μM + HG 30 mM 6 h
Protocol: Therefore, to determine whether ANM augments Nrf2 transcriptional activity, ARE-harboring luciferase reporter assay is used. In FIG. 5E, to determine the Nrf2 transcriptional activity, HNDFs are transiently transfected with ARE promoter construct using lipofectamine and incubated with ANM (10 μM) or NAC (100 μM) in the presence or absence of HG (30 mM) for 6 h. Cell lysates are mixed with luciferase reagents and quantified using an illuminometer. Relative ARE promoter activity is calculated by dividing the relative luciferace unit (RLU) of treated cells by RLU of untreated cells (NG).
Activation of P13K/AKT and mitogen-activated protein kinases (MAPKs), including ERK1/2, JNK/SAPK and p38 MAPK, facilitates Nrf2 transcriptional activation in a variety of human cell lines. […] To elucidate the upstream signaling events involved in ANM-induced Nrf2 transcriptional activity, cells are pre-incubated with pharmacological inhibitors of P13K/AKT (LY294002), ERK1/2 (PD98059), SAPK/JNK (SP600125) and p38MAPK (SB203580) for 2 h and treated with ANM for 6 h in the presence of HG. In FIG. 5G, HNDFs are pre-incubated with AKT, ERK1/2, JNK/SAPK and p38 MAPK inhibitors, including LY294002 (LY, 30 μM), PD98059 (PD, 30 μM), SP600125 (SP, 30 μM) and SB203580 (SB, 30 μM), respectively, for 2 h and then incubated with ANM (10 μM) in the presence of HG (30 mM) for 6 h. Cytoplasmic and nuclear fractions are prepared and subjected to western blot analysis. GAPDH and histone H3 are served as internal controls for the cytoplasmic and nuclear fraction, respectively.
ARE promoter activity is measured using a dual-luciferase reporter assay system (Promega, Madison, Wis.). […] Cells are then transfected with ARE plasmid (Qiagen, Hilden, Germany) using Lipofectamine 2000 (Invitrogen) and incubated for 36 h. […] The cell lysate is prepared and incubated with luciferase agents and the relative luminescence intensity is quantified using a spectrophotometer (Hidex Oy, Turku, Finland).

Compound	cytotoxicity to HNDFs (in words) (HNDFs (CCD966SK))	cell proliferation (number of viable cells) vs HG group (HNDFs [1])	SA-β-gal positive cells (HNDFs [2]) [fold]	HG-induced p16^INK4A and p21^CIP1 protein expression [3]	IC50 (HNDFs (CCD966SK)) [µM]	further results
C=C(CC[C@@H](C)[C@H]1CC[C@H]2C3=C(C(=O)C[C@]12C)[C@@]1(C)CCC(=O)[C@@H](C)[C@@H]1CC3)C(C)C(=O)O (stereo partly shown) [ANA, antcin A]	did not show significant cytotoxicity	partially increase	7.46	moderate inhibition	–	–
C=C(CC[C@@H](C)[C@H]1CC[C@H]2C3=C(C(=O)C[C@]12C)[C@@]1(C)CCC(=O)[C@@H](C)[C@@H]1CC3=O)[C@H](C)C(=O)O [ANB, antcin B]	strong cytotoxicity	–	–	–	7.11	–
C=C(CC[C@@H](C)[C@H]1CC[C@H]2C3=C(C(=O)C[C@]12C)[C@@]1(C)CCC(=O)[C@@H](C)[C@@H]1C[C@@H]3O)[C@H](C)C(=O)O [ANC, antcin C]	did not show significant cytotoxicity	–	–	–	–	–
C=C(CCC(C)C1CCC2C3=C(C(=O)C(O)C21C)C1(C)CCC(O)C(C)C1CC3=O)C(C)C(=O)O (stereo not shown) [ANH, antcin H]	did not show significant cytotoxicity	partially increase	8.13	moderate inhibition	–	–
C=C(CC[C@@H](C)[C@H]1CC[C@H]2C3=C(C(=O)C[C@]12C)[C@@]1(C)CC[C@@H](O)[C@](C)(O)[C@@H]1C[C@@H]3O)C(C)C(=O)O (stereo partly shown) [ANK, antcin K]	strong cytotoxicity	–	–	–	2.89	–
COc1cccc(-c2cc(=O)c3ccccc3o2)c1N [PD98059, reference compound]	–	–	–	–	–	HG-induced p16^INK4A expression and p53 phosphorylation, kinase inhibitors (p53 and FoxO1): fails to protect; ANM-induced ARE luciferase activity after inhibitor pretreatment (Nrf2): effectively suppresses; HG-induced SA-β-gal activity, kinase inhibitors (HNDFs [2]; inhibitor 30 μM + HG 30 mM, 72 h (FIG. 4H)): does not affect
